The numbers were not newly measured in patent US9603811B2, “Pharmaceutical compositions of carotenoid chylomicrons” (HEALTH-EVER BIOTECH CO. LTD, priority 2013, dated 2017), which cites them from elsewhere.

Like-named read-outs stand apart in the source and are kept apart here.

Consider `CC(C)=CCC/C(C)=C/C=C/C(C)=C/C=C/C(C)=C/C=C/C=C(C)/C=C/C=C(C)/C=C/C=C(\C)CCC=C(C)C` [solanorubin], for which the solubility in water result was “practically insoluble in water”. In addition, the solubility in water result (listed as Solanorubin) is recorded as “insoluble in water”.
